Source: publication PMC11984407, “A natural small molecule isoginkgetin alleviates hypercholesterolemia and atherosclerosis by targeting ACLY” (Theranostics, 2025)

Assays:
[1] = system: Syrian golden hamsters; test: High cholesterol diet-fed Syrian golden hamsters; format: in vivo, hamster
Description: Syrian golden hamsters were purchased from Vital River Laboratories (Beijing, China). Hamsters were fed a high cholesterol diet and received ISOGK (5 mg/kg/day) for 4 weeks. Before being sacrificed, liver and blood samples were collected at the end of the experiment. The animal study protocol was approved by the Ethics Committee of Hefei University of Technology (approval number HFUT20221031001) and conducted in accordance with the guidelines set forth in the "Guide for the Care and Use of Laboratory Animals," published by the National Institutes of Health (NIH).
(§1) Plasma levels of TC, TG, LDL-C, and high-density lipoprotein cholesterol (HDL-C) were determined following the manufacturer's instructions. Liver tissues (30-40 mg) were homogenized in 0.5 mL of cold PBS for hepatic TG and cholesterol measurement. A 0.4 mL homogenate was combined with 1.4 mL of a CHCl3/CH3OH mixture (2:1, v/v) and shaken overnight at room temperature. Following centrifugation at 2,500 × g for a period of 10 min, the organic phase was meticulously transferred and permitted to air-dry. The residual organic material was then reconstituted in 800 μL of ethanol containing 1% Triton X-100, whereby the ethanol served to solubilize the material.
Fast protein liquid chromatography (FPLC) was employed to analyze plasma lipoproteins using 200 μL of pooled plasma samples. The samples were initially filtered through 0.22-µm filters and subsequently loaded onto Tricorn high-performance Superose S-6 10/300GL columns (Amersham Biosciences). Elution was conducted with PBS at a constant flow rate of 0.25 mL/min. The eluted fractions (500 μL each) were subjected to analysis for TG and TC concentrations using the aforementioned commercial assay kits.

[2] = system: primary mouse hepatocytes (PMH); test: Nile red staining of PMH from Acly flox/flox mice infected with Cre adenovirus; format: cell-based; conditions: 5 µM, 12 h
Description: For the Nile Red staining procedure, primary mouse hepatocytes were treated with IOSGK at varying concentrations for a period of 12 h. Subsequently, the cells were fixed with 4% paraformaldehyde (PFA) and stained with Nile Red ([…], Invitrogen, Carlsbad, CA, USA). The intracellular accumulation of lipids was visualized and quantified using a laser scanning confocal microscope (TCS SP8; Leica, Wetzlar, Germany). Male and female Acly^flox/flox mice were used to isolate PMH and infected with adenovirus vectors carrying either Cre or GFP for 24 h.

[3] = system: LDLR and ACLY protein levels; test: Western blot of LDLR and ACLY in Huh-7 cells; format: cell-based, human; conditions: Huh-7, various concentrations
Description: (§2) Western blotting was performed as previously described. In brief, whole-cell lysates from cultured cells and animal tissue were prepared using 1× sample buffer, followed by boiling at 95 °C for 10 min. Subsequently, SDS-PAGE was employed to separate the samples, which were then transferred onto a nitrocellulose membrane (Pall, NY, USA). Subsequently, the membrane was incubated in a blocking buffer for one h at room temperature. Following the removal of the blocking buffer, the blots were incubated with primary antibodies (1:1,000 dilution) at 4 °C overnight. The membrane was washed thrice for 10 min each, using 1× Tris-buffered saline with 0.1% Tween-20 (TBST). Subsequently, the membranes were incubated with IRDye® 680RD Goat anti-Mouse IgG (H + L) or IRDye® 800CW Goat anti-Rabbit IgG (H + L) (1:10,000 dilution, LI-COR, Lincoln, Nebraska, USA) at room temperature for 1 h. Visualization of the blots was carried out using the Li-COR CLx infrared imaging system. GAPDH (60004-1-Ig, Proteintech, Chicago, IL, USA), ACLY (67166-1-Ig, Proteintech, Chicago, IL, USA), LDLR (10785-1-AP, Proteintech, Chicago, IL, USA), β-Actin (66009-1-Ig, Proteintech, Chicago, IL, USA), AMPK (10929-2-AP, Proteintech, Chicago, IL, USA), p-AMPK^T172 (2535, Cell Signaling Technology, Danvers, MA, USA).

[4] = system: AMPK; test: Western blot of p-AMPK in AML12 and HepG2 cells; format: cell-based; conditions: 5 µM, 12 h after 50 µM palmitic acid
Description: as §2

[5] = system: Ldlr-/- hamsters; test: High cholesterol diet-fed Ldlr-/- hamsters; format: in vivo, hamster
Description: Syrian golden hamsters with a deficiency in the low-density lipoprotein receptor (Ldlr) gene were generated using the clustered regularly interspaced short palindromic repeats (CRISPR) and CRISPR-associated protein 9 (Cas9) gene editing system, as previously described. Male Ldlr^-/- hamsters at 8-week-old were randomly divided into three groups. The animals were administered with vehicle, ISOGK (2 mg/kg/day), or ISOGK (5 mg/kg/day) for a period of four weeks. The hamsters were maintained on a 14-h light/10-h dark cycle at 24 °C and were fed a 1.25% high cholesterol diet. Unless otherwise stated, the hamsters were fasted for 12 h prior to euthanasia. All experiments were conducted in accordance with the principles of experimental animal care (NIH publication no. 85-23, revised 1996) and were approved by the Animal Care and Use Committee of Peking University (approval number LA2022-147).
as §1

[6] = system: Srebf1c and Fasn mRNA; test: RT-qPCR of lipid synthesis genes after ACLY knockdown in AML12 and Huh7 cells; format: cell-based; conditions: 5 µM, 50 µM PA, 12 h
Description: Total RNA was extracted from cultured cells or animal tissue using RNeasy kits (RN001-50Rxns, YiShan, Shanghai, China). Subsequently, cDNA was generated using a Takara Reverse Transcription Kit (RR037B, Takara, Kyoto, Japan). Subsequently, quantitative real-time polymerase chain reaction (RT-qPCR) assays were conducted using ChamQ SYBR qPCR Master Mix (Q311-02, Vazyme, Nanjing, China), following the reverse transcription. The Roche LC96 real-time PCR detection system was employed for the detection of results, with glyceraldehyde-3-phosphate dehydrogenase (GAPDH) serving as the loading control for the quantification of mRNA levels. The fold change relative to the respective controls was determined using the 2^(^-ΔΔCt) method. Primers were designed using the PrimerQuest software and subsequently synthesised by Sangon Biotech (Shanghai, China).

[7] = hamsters, 5 mg/kg/day i.p., 4 weeks

COc1ccc(-c2cc(=O)c3c(O)cc(O)c(-c4cc(-c5cc(=O)c6c(O)cc(O)cc6o5)ccc4OC)c3o2)cc1 [ISOGK, Isoginkgetin]
decrease in hepatic TC [1, 7]: 27.53% | decrease in hepatic TG [1, 7]: 64.14% | reduction in serum LDL-C [1, 7]: 56.55% | reduction in serum TC [1, 7]: 36.12% | reduction in serum TG [1, 7]: 46.87% | lipid deposition in liver (Oil Red O) ([1]; hamsters, 4 weeks): significantly reduced lipid deposition | serum antioxidant indicators (MDA, SOD, ox-LDL) ([1]; hamsters, 4 weeks): remained unaltered | serum TC and TG distribution (FPLC) ([1]; hamsters, pooled plasma): significant decrease in serum TC and TG distribution | serum ALT and AST vs vehicle ([1]; high cholesterol diet-fed hamsters, 5 mg/kg/day i.p., 4 weeks): no significant difference | LDLR and ACLY protein levels in the liver ([1]; hyperlipidemic hamsters, 5 mg/kg/day, 4 weeks): no significant difference | lipid deposition in PMH when ACLY abrogated or depleted (Nile red) [2]: did not further diminish lipid deposition | LDLR and ACLY protein levels [3]: no significant change in the LDLR and ACLY protein levels | p-AMPK protein expression [4]: activate AMPK | lipid accumulation in aortic sinus (Oil Red O) [5]: significantly reduced lipid accumulation | lipid accumulation in liver tissues (Nile Red) [5]: significantly reduced lipid accumulation | reduction in hepatic TC vs vehicle ([5]; 2 mg/kg/day i.p.): 25.89% | reduction in hepatic TC vs vehicle ([5]; 5 mg/kg/day i.p.): 35.75% | decrease in serum TG levels (Figure 5B) ([5]; high dose 5 mg/kg/day): 61.32% | decrease in serum non-HDL-C ([5]; high dose 5 mg/kg/day): 51.76% | reduction in serum TC (Figure 5C) ([5]; high dose 5 mg/kg/day): 52.15% | reduction in serum TG (Figure 5C) ([5]; high dose 5 mg/kg/day): 51.38% | reduction of aortic plaque area (Oil Red O) vs vehicle ([5]; high-dose 5 mg/kg/day): 29.85% | serum HDL-C levels ([5]; low and high doses): without affecting HDL-C levels | decrease in serum TG levels (Figure 5B) ([5]; low dose 2 mg/kg/day): 47.57% | decrease in serum non-HDL-C ([5]; low dose 2 mg/kg/day): 28.16% | reduction in serum TC (Figure 5C) ([5]; low dose 2 mg/kg/day): 28.72% | reduction in serum TG (Figure 5C) ([5]; low dose 2 mg/kg/day): 47.99% | reduction of aortic plaque area (Oil Red O) vs vehicle ([5]; low-dose 2 mg/kg/day): 21.74% | mRNA expression of Srebf1c and Fasn following ACLY knockdown [6]: did not demonstrate a further reduction
